Laboratory results: patent publication US20050258288A1, “High pressure media milling system and process of forming particles” (E. I. du Pont de Nemours and Company, priority 2003, published 2005)
Blank lines part the entries; values can stand above or below the compound they belong to.

Tests used:
[1] = Particle size of milled product by Malvern Mastersizer 2000 (laser diffraction); format: physicochemical; conditions: for X10 / X50 / X90 (90% cumulative undersize): Example 4: piroxicam milled in supercritical CO2, 120 min, by collection method
[2] = Surface area measurements (BET) of milled product; format: physicochemical; conditions: Example 4: piroxicam milled in supercritical CO2; for BET: Table 2
Description: The yield of the run with the depressurization was 10.7 grams, while in the case of the nozzle dispersion only 2.4 grams were recovered.

[3] = Example 2: ibuprofen + sodium lauryl sulfate milled in supercritical CO2, ceramic media, 60 min
[4] = Example 1: lactose + oleic acid milled in supercritical CO2, nylon media, 60 min
[5] = Example 3: lactose mono hydrate + Span85 milled in liquified HFC 134a, 1000 psi, 60 min

X10 [1]: 3.00 micron | X50 [1]: 5.70 micron | X90 (90% cumulative undersize) [1]: 10.9 micron | BET [2]: 11.8 sq. m/g | surface area (BET), specific surface area ([2]; listed as product collected in the filter before depressurization): 11.8 sq meter per gram
Structure (SMILES): CN1C(C(=O)Nc2ccccn2)=C(O)c2ccccc2S1(=O)=O [Test 1, piroxicam]

X10 [1]: 0.08 micron | X50 [1]: 0.26 micron | X90 (90% cumulative undersize) [1]: 2.04 micron | BET [2]: 9.4 sq. m/g | surface area (BET), specific surface area ([2]; listed as nozzle dispersed material): 9.7 sq meter per gram
Structure (SMILES): CN1C(C(=O)Nc2ccccn2)=C(O)c2ccccc2S1(=O)=O [Test 2, piroxicam]

10% cumulative undersize [1, 3]: 1.097 micron | median size [1, 3]: 2.6 micron | 90% cumulative undersize ([1]; Example 2: ibuprofen + sodium lauryl sulfate milled in supercritical CO2, due to agglomeration): 219 microns
Structure (SMILES): CC(C)Cc1ccc(C(C)C(=O)O)cc1 (stereo not shown) [ibuprofen]

10% cumulative undersize [1, 4]: 3.0 micron | 90% cumulative undersize [1, 4]: 796 micron | median particle size ([1]; Example 1: lactose + oleic acid milled in supercritical CO2, nylon media, 60 min, collected in high pressure filter): 75.889 microns | 10% cumulative undersize [1, 5]: 1.059 micron | 90% cumulative undersize [1, 5]: 553 micron | median particle size [1, 5]: 4.4 microns
Structure (SMILES): OC[C@H]1O[C@@H](O[C@H]2[C@H](O)[C@@H](O)C(O)O[C@@H]2CO)[C@H](O)[C@@H](O)[C@H]1O (stereo partly shown) [lactose]
